# Source: US20260345742A1, “SYNTHETIC SURFACTANTS FOR INHIBITING CORONAVIRUS INFECTION” (priority 2022, published 2026)
# Read-outs that look alike come from different tables or passages of the source. Ends that are not written are not given here.
# Columns and labels:
# ACE2 = ACE2 (Homo sapiens, UniProt Q9BYF1); experiment: SPR binding (Biacore T200) of ACE2 to chip-linked biotinylated B-YL
# SARS-CoV-2 RBD = SARS-CoV-2 RBD (Severe acute respiratory syndrome coronavirus 2, UniProt P0DTC2); experiment: SPR binding (Biacore T200) of SARS-CoV-2 RBD to chip-linked biotinylated B-YL
# Experimental: FIG. 3. Surface plasmon resonance (SPR) sensorgrams of rbCovid-19-RBD protein construct and human ACE2 receptor binding to immobilized B-YL peptide. The B-YL peptide was biotinylated to facilitate attachment to the Biacore chip as described in Methodology. Solutions of 1 μM recombinant protein in HBS-EP buffer (10 mM Hepes, pH 7.4, 150 mM NaCl, 3 mM EDTA, 0.005% surfactant P20) were then flowed over the respective chip-linked peptides. The concentration dependent binding of the viral RBD construct (A) and the human ACE-2 receptor (B) to the B-YL lung surfactant peptide are shown with the SPR response indicated in relative response units (RU) on the graph's Y-axis.
# One of the best in vitro determinations of the binding of proteins and peptides to one another is by surface plasmon resonance (SPR). This technique allows the direct measurement of the binding of a peptide or protein by attaching one protein to a sensor chip surface and flowing a solution containing a second protein over the surface. The binding affinities derived from such measurements are very similar to those observed in vivo.
# The binding affinity of the B-YL lung surfactant peptide to the coronavirus recombinant spike protein construct of SARS-CoV-2 (viral spike protein amino acid sequence) that included the Receptor Binding Domain (RBD) was measured with SPR spectroscopy using a Biacore T200 system (GE Healthcare Bio-Sciences Corp, Piscataway, NJ 08855).
# B-YL peptide binding to the recombinant SARS-CoV-2 RBD domain dissolved in a series of seven concentrations (1,000, 500, 250, 125, 62.5, 31.25 and 0 nM) in the analyte and was determined from the sensorgrams, in which arbitrary response units (RUS) are recorded as a function of time.
# In Table 1, association and dissociation kinetic rate constants (kon, koff) and equilibrium dissociation constants (KD) were calculated from surface plasmon resonance (SPR) kinetic measurements for aqueous SARS-CoV-2 RBD expressed protein flowing past B-YL surfactant peptide on the Biacore chip. The recombinant SARS-CoV-2 RBD protein was dissolved in running buffer and was flowed past the sensor chip with a BiocoreT200 system (Methods). Kinetic rate constants and equilibrium dissociation constants were determined from curve fitting analysis of SPR traccs.
# The binding affinities of the B-YL lung surfactant peptide to the Angiotensin-Converting Enzyme 2 (ACE-2) receptor recombinant construct (human amino acid sequence) and the coronavirus recombinant spike protein construct of Covid-19 (viral spike protein amino acid sequence) that included the Receptor Binding Domain (RBD) were measured with surface plasmon resonance (SPR) spectroscopy using a Biacore T200 system (GE Healthcare Bio-Sciences Corp, Piscataway, NJ 08855).
# The SPR binding study was accomplished by associating the ligand (B-YL peptide) immobilized on the SPR sensor surface, and the solute containing the ACE-2 or the Covid-19 protein construct was then flowed past the sensor linked molecule. The binding of the solute to the sensor surface ligand results in an evanescent sensor response, is measured in Response Units (RU) that are proportional to the bound mass.
# In Table 3, Association and dissociation kinetic rate constants (kon, koff) and equilibrium dissociation constants (KD) were calculated from surface plasmon resonance (SPR) kinetic measurements for aqueous RBD, and ACE2 flowing past BYL attached to a Biacore chip. Proteins were dissolved in running buffer (10 mM HEPES, 150 mM NaCl, 3 mM EDTA, 0.005% Surfactant P20, pH 7.4) and were flowed past biotin linked B-YL peptide construct on a CSM sensor chip with a Biacore system (Methodology). Kinetic rate constants and equilibrium dissociation constants were determined from curve fitting analysis of SPR traces.
# [1] = Aqueous solution solubility; format: physicochemical; details: stated as the reason for biotinylation
# Chain of ACE2 (Q9BYF1 18-805): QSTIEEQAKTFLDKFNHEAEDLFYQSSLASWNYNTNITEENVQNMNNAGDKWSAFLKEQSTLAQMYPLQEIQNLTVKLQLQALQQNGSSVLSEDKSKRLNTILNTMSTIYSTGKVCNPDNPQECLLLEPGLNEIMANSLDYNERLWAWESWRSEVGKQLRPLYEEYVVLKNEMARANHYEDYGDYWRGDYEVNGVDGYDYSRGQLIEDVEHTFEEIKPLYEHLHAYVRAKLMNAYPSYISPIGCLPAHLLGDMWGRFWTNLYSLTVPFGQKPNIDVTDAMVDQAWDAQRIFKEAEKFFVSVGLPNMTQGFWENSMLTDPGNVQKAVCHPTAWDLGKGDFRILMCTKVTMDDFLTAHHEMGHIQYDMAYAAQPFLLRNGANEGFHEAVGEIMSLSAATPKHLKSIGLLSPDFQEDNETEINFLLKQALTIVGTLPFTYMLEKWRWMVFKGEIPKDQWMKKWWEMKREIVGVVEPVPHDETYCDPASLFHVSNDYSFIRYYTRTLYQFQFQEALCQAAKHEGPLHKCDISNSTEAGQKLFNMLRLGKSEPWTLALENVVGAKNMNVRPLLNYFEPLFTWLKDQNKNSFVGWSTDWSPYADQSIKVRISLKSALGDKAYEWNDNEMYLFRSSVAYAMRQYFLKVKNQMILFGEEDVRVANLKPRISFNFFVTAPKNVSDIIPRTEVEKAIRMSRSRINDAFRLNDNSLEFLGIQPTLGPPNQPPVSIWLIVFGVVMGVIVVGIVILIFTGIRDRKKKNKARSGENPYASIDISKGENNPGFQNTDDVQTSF
sequence,measurement,setting,value
FPIPLPYYWLYRALIKRIQALIPKGGRLLPQLVYRLVLRYS [B-YL],Kd,ACE2,4.37 µM
same,koff,ACE2; pH 7.4,0.013 s⁻¹
same,kon,ACE2; pH 7.4,2980 M⁻¹ s⁻¹
same,koff,SARS-CoV-2 RBD,5.08 × 10^−02 1/s
same,Kd,"SARS-CoV-2 RBD; RBD(wt) - B-YL, expt. data - SPR (Table 2)",57 µM
same,Kd,"SARS-CoV-2 RBD; Table 1, aqueous SARS-CoV-2-RBD over chip-associated biotinylated B-YL, HBS-EP pH 7.4, 37 °C, KD=koff/kon",56.9 µM
same,Kd,"SARS-CoV-2 RBD; Table 3, aqueous RBD over chip-linked B-YL, pH 7.4, 37 °C, KD=koff/kon",57 µM
same,koff,SARS-CoV-2 RBD; pH 7.4,0.0508 s⁻¹
same,kon,"SARS-CoV-2 RBD; pH 7.4, Table 1, aqueous SARS-CoV-2-RBD over chip-associated biotinylated B-YL, HBS-EP pH 7.4, 37 °C",890 M⁻¹ s⁻¹
same,kon,"SARS-CoV-2 RBD; pH 7.4, Table 3, aqueous RBD over chip-linked B-YL, pH 7.4, 37 °C",892 M⁻¹ s⁻¹
same,aqueous solution solubility,[1],limited aqueous solution solubility
